# Data: ChEMBL document CHEMBL1681737, “Isatin 1,2,3-triazoles as potent inhibitors against caspase-3” (Bioorg Med Chem Lett, 2011)
# Molecular target: T1, Caspase-3 (Homo sapiens, UniProt P42574)
# T1 sequence (P42574 whole entry): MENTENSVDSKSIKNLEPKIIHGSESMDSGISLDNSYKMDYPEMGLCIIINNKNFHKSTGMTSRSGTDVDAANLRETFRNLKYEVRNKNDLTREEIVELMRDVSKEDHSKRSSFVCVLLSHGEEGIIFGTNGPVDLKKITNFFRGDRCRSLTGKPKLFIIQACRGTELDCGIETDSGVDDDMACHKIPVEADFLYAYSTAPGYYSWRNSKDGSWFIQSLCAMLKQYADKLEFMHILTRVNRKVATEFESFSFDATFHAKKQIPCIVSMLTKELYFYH
# Experiment: Inhibition of caspase 3 using Ac-DEVD-AFC fluorogenic substrate
row,IC50 [µM],Compound
1,0.0167,O=C1C(=O)N(Cc2cn(CCF)nn2)c2ccc(S(=O)(=O)N3CCC[C@H]3COc3ccccc3)cc21
2,0.0005,O=C1C(=O)N(Cc2cn(CCF)nn2)c2ccc(S(=O)(=O)N3CCC[C@H]3COc3ccc(F)cc3F)cc21
3,1,O=C1Nc2ccc([N+](=O)[O-])cc2C1=O [5-NITROISATIN]
